From ChEMBL document CHEMBL4376823, “The discovery of a potent and selective third-generation EGFR kinase inhibitor as a therapy for EGFR L858R/T790M double mutant non-small cell lung cancer” (Eur J Med Chem, 2019)
pIC50: −log10 of the molar value.

Assays:
[1] = Cytotoxicity against human HLF cells expressing EGFR assessed as reduction in cell viability incubated for 72 hrs by MTT assay; format: cell-based
L02 [2] = test: Cytotoxicity against human LO2 cells expressing EGFR assessed as reduction in cell viability incubated for 72 hrs by MTT assay; format: cell-based; conditions: L02, 72 h
NCI-H292 = test: Antiproliferative activity against human NCI-H292 cells expressing EGFR assessed as reduction in cell viability incubated for 72 hrs by MTT assay; format: functional, cell-based
[3] = Cytotoxicity against human HEK293A cells expressing EGFR assessed as reduction in cell viability incubated for 72 hrs by MTT assay; format: cell-based, HEK293-A
NCI-H1975 [4] = test: Inhibition of cell migration in human NCI-H1975 cells at 25 nM incubated for 24 hrs by phase contrast microscopy relative to control; format: functional
PC-9 = test: Antiproliferative activity against human PC9 cells expressing EGFR L858R mutant assessed as reduction in cell viability incubated for 72 hrs by MTT assay; format: functional, cell-based
L02 [5] = test: Cytotoxicity against human LO2 cells assessed as change in cell morphology at 5 and 10 uM incubated for 48 hrs by microscopic analysis; format: cell-based; conditions: l02, 48 h
NCI-H1975 [6] = test: Antiproliferative activity against human NCI-H1975 cells expressing EGFR T790M/L858R mutant assessed as reduction in cell viability incubated for 72 hrs by MTT assay; format: functional, cell-based
HK-2 [7] = test: Cytotoxicity against human HK2 cells expressing EGFR assessed as reduction in cell viability incubated for 72 hrs by MTT assay; format: cell-based; conditions: HK-2, 72 h
[8] = Cytotoxicity against human HEK293A cells assessed as change in cell morphology at 5 and 10 uM incubated for 48 hrs by microscopic analysis; format: cell-based; conditions: hek293-a
HK-2 [9] = test: Cytotoxicity against human HK2 cells assessed as change in cell morphology at 5 and 10 uM incubated for 48 hrs by microscopic analysis; format: cell-based; conditions: hk-2, 48 h
BJ = test: Cytotoxicity against human BJ cells expressing EGFR assessed as reduction in cell viability incubated for 72 hrs by MTT assay; format: cell-based
NCI-H1975 [10] = test: Antitumor activity against human NCI-H1975 cells xenografted in ig dosed BALB/c mouse assessed as tumor growth inhibition for one week; format: functional, organism-based
NCI-H1975 [11] = test: Antitumor activity against human NCI-H1975 cells xenografted in BALB/c mouse assessed as tumor growth inhibition at 10 mg/kg, ig for one week; format: functional
NCI-H1975 [12] = test: Antitumor activity against human NCI-H1975 cells xenografted in BALB/c mouse assessed as tumor volume at 10 mg/kg, ig for one week (reference value: 835.52 mm3); format: functional
[13] = Toxicity in BALB/c mouse xenografted with human NCI-H1975 cells assessed as body weight at 10 mg/kg, ig for one week (reference value: 1.6 g); format: organism-based; conditions: in vivo, po
NCI-H1975 [14] = test: Antitumor activity against human NCI-H1975 cells xenografted in BALB/c mouse assessed as tumor growth inhibition at 20 mg/kg, ig for one week; format: functional
NCI-H1975 [15] = test: Antitumor activity against human NCI-H1975 cells xenografted in BALB/c mouse assessed as tumor volume at 20 mg/kg, ig for one week (reference value: 835.52 mm3); format: functional
[16] = Toxicity in BALB/c mouse xenografted with human NCI-H1975 cells assessed as body weight at 20 mg/kg, ig for one week (reference value: 1.6 g); format: organism-based; conditions: in vivo, po
[17] = biological target: Epidermal growth factor receptor (Homo sapiens, UniProt P00533, L858R/T790M); test: Inhibition of recombinant human GST-tagged EGFR T790M/L858R mutant expressed in baculovirus expression system using Tyr 04 as substrate incubated for 1 hr by Z'-LYTE assay
Sequence of Epidermal growth factor receptor (Homo sapiens, UniProt P00533, L858R/T790M) (P00533 25-1210 T790M/L858R limits assumed): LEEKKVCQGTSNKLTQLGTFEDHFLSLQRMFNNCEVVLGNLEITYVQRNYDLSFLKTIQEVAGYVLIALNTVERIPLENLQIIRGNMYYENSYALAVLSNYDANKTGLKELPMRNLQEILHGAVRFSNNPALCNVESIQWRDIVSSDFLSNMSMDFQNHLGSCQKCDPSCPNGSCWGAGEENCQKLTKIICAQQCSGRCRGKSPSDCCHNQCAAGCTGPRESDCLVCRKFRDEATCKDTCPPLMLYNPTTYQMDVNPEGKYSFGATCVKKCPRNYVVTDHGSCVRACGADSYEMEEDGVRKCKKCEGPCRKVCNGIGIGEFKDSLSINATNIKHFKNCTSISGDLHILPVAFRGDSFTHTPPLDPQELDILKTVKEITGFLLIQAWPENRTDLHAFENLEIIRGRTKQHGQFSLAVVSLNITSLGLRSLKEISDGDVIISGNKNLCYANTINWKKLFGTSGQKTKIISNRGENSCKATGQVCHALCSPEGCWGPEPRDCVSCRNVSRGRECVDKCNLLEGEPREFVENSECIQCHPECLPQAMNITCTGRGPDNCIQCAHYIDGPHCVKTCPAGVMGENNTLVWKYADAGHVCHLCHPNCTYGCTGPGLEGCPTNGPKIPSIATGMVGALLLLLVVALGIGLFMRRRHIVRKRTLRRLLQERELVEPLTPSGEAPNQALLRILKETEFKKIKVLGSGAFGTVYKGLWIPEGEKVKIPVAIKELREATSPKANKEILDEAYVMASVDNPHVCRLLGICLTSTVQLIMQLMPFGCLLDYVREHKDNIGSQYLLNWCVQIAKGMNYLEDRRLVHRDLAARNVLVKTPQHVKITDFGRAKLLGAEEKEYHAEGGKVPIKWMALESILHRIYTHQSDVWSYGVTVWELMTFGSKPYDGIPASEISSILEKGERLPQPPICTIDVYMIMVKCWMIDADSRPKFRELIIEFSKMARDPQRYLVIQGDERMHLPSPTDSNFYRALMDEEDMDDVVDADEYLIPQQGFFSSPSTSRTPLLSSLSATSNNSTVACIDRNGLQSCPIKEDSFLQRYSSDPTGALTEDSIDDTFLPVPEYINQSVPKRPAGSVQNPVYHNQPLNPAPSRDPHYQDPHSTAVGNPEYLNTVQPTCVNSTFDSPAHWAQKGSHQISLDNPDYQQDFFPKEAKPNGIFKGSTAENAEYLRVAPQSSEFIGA

[18] = biological target: Epidermal growth factor receptor (Homo sapiens, UniProt P00533); test: Inhibition of recombinant human GST-tagged EGFR (668 to 1210 residues) expressed in baculovirus expression system using Tyr 04 as substrate incubated for 1 hr by Z'-LYTE assay
Sequence of Epidermal growth factor receptor (Homo sapiens, UniProt P00533) (P00533 whole entry, the tested form may be a part): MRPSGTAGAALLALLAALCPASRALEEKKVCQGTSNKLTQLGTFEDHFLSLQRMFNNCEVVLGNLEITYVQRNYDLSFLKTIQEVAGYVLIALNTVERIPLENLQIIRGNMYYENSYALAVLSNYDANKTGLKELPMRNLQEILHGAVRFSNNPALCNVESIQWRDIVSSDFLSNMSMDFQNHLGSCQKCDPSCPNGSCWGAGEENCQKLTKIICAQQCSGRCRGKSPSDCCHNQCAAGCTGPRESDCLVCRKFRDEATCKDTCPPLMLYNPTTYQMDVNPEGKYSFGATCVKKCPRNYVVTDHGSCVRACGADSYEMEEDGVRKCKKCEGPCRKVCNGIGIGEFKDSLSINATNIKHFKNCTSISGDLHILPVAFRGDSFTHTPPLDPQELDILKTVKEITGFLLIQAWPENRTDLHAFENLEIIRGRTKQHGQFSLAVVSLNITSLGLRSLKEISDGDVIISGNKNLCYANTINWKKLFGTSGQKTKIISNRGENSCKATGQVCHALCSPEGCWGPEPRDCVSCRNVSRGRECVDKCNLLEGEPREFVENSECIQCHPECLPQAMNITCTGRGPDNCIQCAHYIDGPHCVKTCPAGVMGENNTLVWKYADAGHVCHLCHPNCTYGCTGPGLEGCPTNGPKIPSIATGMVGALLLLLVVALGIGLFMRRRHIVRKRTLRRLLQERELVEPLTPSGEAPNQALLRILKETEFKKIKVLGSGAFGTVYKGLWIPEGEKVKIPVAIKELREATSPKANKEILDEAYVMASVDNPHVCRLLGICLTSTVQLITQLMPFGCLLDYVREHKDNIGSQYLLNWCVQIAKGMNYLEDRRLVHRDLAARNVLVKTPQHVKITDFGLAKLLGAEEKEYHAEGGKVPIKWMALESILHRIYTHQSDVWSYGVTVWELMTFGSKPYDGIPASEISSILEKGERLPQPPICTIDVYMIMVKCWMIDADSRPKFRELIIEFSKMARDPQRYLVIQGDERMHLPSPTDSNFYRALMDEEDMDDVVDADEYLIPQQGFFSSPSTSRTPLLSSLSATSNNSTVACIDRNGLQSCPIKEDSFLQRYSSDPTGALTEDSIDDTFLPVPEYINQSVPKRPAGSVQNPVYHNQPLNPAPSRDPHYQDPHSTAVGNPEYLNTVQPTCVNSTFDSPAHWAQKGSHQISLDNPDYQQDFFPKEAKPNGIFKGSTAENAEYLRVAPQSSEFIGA

[19] = biological target: Epidermal growth factor receptor (Homo sapiens, UniProt P00533, L858R); test: Inhibition of recombinant human GST-tagged EGFR L858R mutant expressed in baculovirus expression system using Tyr 04 as substrate incubated for 1 hr by Z'-LYTE assay
Sequence of Epidermal growth factor receptor (Homo sapiens, UniProt P00533, L858R) (P00533 25-1210 L858R limits assumed): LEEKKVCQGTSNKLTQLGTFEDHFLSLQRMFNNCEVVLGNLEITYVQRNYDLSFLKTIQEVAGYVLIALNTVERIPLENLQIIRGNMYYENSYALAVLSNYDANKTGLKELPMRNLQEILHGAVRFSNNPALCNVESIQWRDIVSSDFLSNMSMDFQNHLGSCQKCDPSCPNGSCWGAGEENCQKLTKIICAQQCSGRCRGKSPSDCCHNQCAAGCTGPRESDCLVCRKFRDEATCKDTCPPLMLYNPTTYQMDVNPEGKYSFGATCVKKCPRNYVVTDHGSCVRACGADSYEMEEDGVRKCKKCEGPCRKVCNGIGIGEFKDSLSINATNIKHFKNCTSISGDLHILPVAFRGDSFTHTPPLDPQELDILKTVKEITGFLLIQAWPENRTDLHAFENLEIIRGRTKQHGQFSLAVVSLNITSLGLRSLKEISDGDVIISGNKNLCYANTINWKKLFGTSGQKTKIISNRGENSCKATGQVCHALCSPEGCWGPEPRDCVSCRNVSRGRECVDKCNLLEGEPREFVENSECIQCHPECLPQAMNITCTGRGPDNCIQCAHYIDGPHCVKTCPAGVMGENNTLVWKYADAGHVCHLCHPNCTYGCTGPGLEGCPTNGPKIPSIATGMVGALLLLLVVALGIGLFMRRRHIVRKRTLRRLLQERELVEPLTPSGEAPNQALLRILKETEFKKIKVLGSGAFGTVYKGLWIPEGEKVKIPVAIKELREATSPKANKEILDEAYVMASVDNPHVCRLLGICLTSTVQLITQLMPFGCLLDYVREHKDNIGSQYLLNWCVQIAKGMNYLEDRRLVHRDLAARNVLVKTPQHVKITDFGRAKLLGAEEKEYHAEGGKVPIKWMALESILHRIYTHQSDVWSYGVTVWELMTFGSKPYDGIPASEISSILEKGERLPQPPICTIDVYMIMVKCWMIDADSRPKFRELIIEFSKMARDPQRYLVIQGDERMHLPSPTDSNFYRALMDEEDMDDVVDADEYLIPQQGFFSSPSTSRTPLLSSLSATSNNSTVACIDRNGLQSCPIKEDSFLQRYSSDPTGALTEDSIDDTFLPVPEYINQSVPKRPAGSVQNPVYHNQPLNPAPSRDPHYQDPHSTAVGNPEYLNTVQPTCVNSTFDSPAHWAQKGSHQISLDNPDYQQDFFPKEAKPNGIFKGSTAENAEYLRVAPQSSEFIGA

[20] = Toxicity in BALB/c mouse xenografted with human NCI-H1975 cells assessed as mortality at 10 to 20 mg/kg, ig for one week; format: organism-based; conditions: in vivo, po
[21] = Selectivity index, ratio of IC50 for human BJ cells to IC50 for human NCI-H1975 cells expressing EGFR T790M/L858R mutant; format: toxicity
[22] = Selectivity index, ratio of IC50 for human HEK293A cells to IC50 for human NCI-H1975 cells expressing EGFR T790M/L858R mutant; format: toxicity
[23] = Selectivity index, ratio of IC50 for human LO2 cells to IC50 for human NCI-H1975 cells expressing EGFR T790M/L858R mutant; format: toxicity
[24] = Selectivity index, ratio of IC50 for human HK2 cells to IC50 for human NCI-H1975 cells expressing EGFR T790M/L858R mutant
[25] = Selectivity index, ratio of IC50 for human HLF cells to IC50 for human NCI-H1975 cells expressing EGFR T790M/L858R mutant
[26] = Mus musculus, NCI-H1975, po, 168 h, read-out: TGI

SMILES	pIC50 (NCI-H292; Homo sapiens, NCI-H292, 72 h)	pIC50 (PC-9; Homo sapiens, PC-9, 72 h)	pIC50 (NCI-H1975 [6]; Homo sapiens, NCI-H1975, 72 h)	pIC50 [17]	pIC50 [18]	pIC50 [19]	also measured
C=CC(=O)Nc1cc(Nc2nccc(-c3cn(C)c4ccccc34)n2)c(OC)cc1N(C)CCN(C)C [OSIMERTINIB]	5.96	[…]	[…]	–	–	–	pIC50 ([1]; Homo sapiens, HLF, 72 h): 5.06; pIC50 (L02 [2]): […]; pIC50 ([3]; Homo sapiens, HEK293-A, 72 h): 5.62; inhibition (INH) (NCI-H1975 [4]): 60.54%; Activity (L02 [5]): Toxic; pIC50 (HK-2 [7]): 5.45; Activity [8]: Toxic; Activity (HK-2 [9]): Toxic; pIC50 (BJ): < 5.00
C=CC(=O)Nc1cc(Nc2nccc(-c3cn(C)c4ccccc34)n2)c(OC)cc1[S+]([O-])CCN(C)C (single isomer, unassigned; (+))	–	–	–	–	–	–	TGI (NCI-H1975 [10]): Dose-dependent effect
C=CC(=O)Nc1cc(Nc2nccc(-c3cn(C)c4ccccc34)n2)c(OC)cc1[S+]([O-])CCN(C)C.O=S(=O)(O)O (single isomer, unassigned; (+))	–	–	–	–	–	–	TGI (NCI-H1975 [11]): 81.82%; Activity (NCI-H1975 [12]): 141.5 mm3; Activity [13]: 2.1 g; TGI (NCI-H1975 [14]): 85.41%; Activity (NCI-H1975 [15]): 117.87 mm3; Activity [16]: 2.1 g
C=CC(=O)Nc1cc(Nc2nccc(-c3cn(C)c4ccccc34)n2)c(OC)cc1N1CCS(=O)(=O)CC1	5.43	7.00	7.02	7.42	6.47	7.34	–
C=CC(=O)Nc1cc(Nc2nccc(-c3cn(C)c4ccccc34)n2)c(OC)cc1N1CCSCC1	4.71	6.51	6.40	7.19	6.28	7.10	–
C=CC(=O)Nc1cc(Nc2nccc(-c3cn(C)c4ccccc34)n2)c(OC)cc1SCCN(C)C	5.98	7.36	7.31	7.96	6.48	7.85	–
C=CC(=O)Nc1cc(Nc2nccc(-c3cn(C)c4ccccc34)n2)c(OC)cc1N1CC[S+]([O-])CC1	5.08	6.75	6.97	7.12	6.38	7.19	–
C=CC(=O)Nc1cc(Nc2nccc(-c3cn(C)c4ccccc34)n2)c(OC)cc1[S+]([O-])CCN(C)C.O=S(=O)(O)O (single isomer, unassigned; (-))	–	–	–	–	–	–	inhibition in vivo at 10 mg/kg (NCI-H1975 [11]; [26]): 87.6%; Activity (NCI-H1975 [12]): 106.81 mm3; Activity [13]: 1.6 g; inhibition in vivo at 20 mg/kg (NCI-H1975 [14]; [26]): 94.3%; Activity [20]: Non-Toxic; Activity (NCI-H1975 [15]): 48.23 mm3; Activity [16]: 2.4 g
C=CC(=O)Nc1cc(Nc2nccc(-c3cn(C)c4ccccc34)n2)c(OC)cc1N(C)CCCl	4.92	5.96	6.18	6.91	5.70	6.38	–
C=CC(=O)Nc1cc(Nc2nccc(-c3cn(C)c4ccccc34)n2)c(OC)cc1N(C)CCO	5.08	6.86	6.74	–	–	–	–
C=CC(=O)Nc1cc(Nc2nccc(-c3cn(C)c4ccccc34)n2)c(OC)cc1N(C)CCN(C)C.O=S(=O)(O)O	–	–	–	–	–	–	TGI (NCI-H1975 [14]): 98.49%; Activity [20]: Non-Toxic; Activity (NCI-H1975 [15]): 18.23 mm3; Activity [16]: 1.9 g
C=CC(=O)Nc1cc(Nc2nccc(-c3cn(C)c4ccccc34)n2)c(OC)cc1[S+]([O-])CCN(C)C (racemic)	5.98	7.77	7.89	8.30	6.62	8.15	selectivity ratio ([21]; read-out: Ratio IC50): > 769; pIC50 ([1]; Homo sapiens, HLF, 72 h): 5.03; pIC50 (L02 [2]): < 5.00; pIC50 ([3]; hek293-a): 5.38; Activity (L02 [5]): Non-Toxic; selectivity ratio ([22]; read-out: Ratio IC50): 322; pIC50 (HK-2 [7]): < 5.00; selectivity ratio ([23]; read-out: Ratio IC50): > 769; Activity [8]: Non-Toxic; Ratio IC50 [24]: >769; Ratio IC50 [25]: 715; Activity (HK-2 [9]): Non-Toxic; pIC50 (BJ): < 5.00
C=CC(=O)Nc1cc(Nc2nccc(-c3cn(C)c4ccccc34)n2)c(OC)cc1[S+]([O-])CCN(C)C (stereo in doubt; (+)-4i)	–	–	–	8.30	6.50	8.22	Ratio IC50 [21]: > 625; pIC50 [1]: 5.01; pIC50 (NCI-H292; nci-h292): 5.87; pIC50 ([3]; hek293-a): 5.43; pIC50 (PC-9; pc-9): 7.74; Ratio IC50 [22]: 233; pIC50 (NCI-H1975 [6]; nci-h1975): 7.80; Ratio IC50 [23]: > 625; Ratio IC50 [24]: >625; Ratio IC50 [25]: 233
C=CC(=O)Nc1cc(Nc2nccc(-c3cn(C)c4ccccc34)n2)c(OC)cc1S(=O)(=O)CCN(C)C	5.19	5.64	6.00	–	–	–	–
C=CC(=O)Nc1cc(Nc2nccc(-c3cn(C)c4ccccc34)n2)c(OC)cc1N(C)CCSC	4.75	5.41	5.55	6.67	5.84	6.51	–
C=CC(=O)Nc1cc(Nc2nccc(-c3cn(C)c4ccccc34)n2)c(OC)cc1N(C)CC[S+](C)[O-] (stereo not given)	4.86	5.83	5.92	6.98	5.76	6.32	–
